The values below come from PMC4278837, “A Cyclic Peptidic Serine Protease Inhibitor: Increasing Affinity by Increasing Peptide Flexibility” (PLoS ONE, 2014).

Bridge positions count the residues as written; N and C are the ends. Square brackets hold non-standard residues; d marks the D form. Peptide text beside a SMILES is read from it. Phe(4-guanidino) = N=C(N)Nc1ccc(C[C@H](N)C(=O)O)cc1

In one experiment the target is T1, muPA Y99A (Mus musculus, UniProt P06869, Y274A).
T1 construct: To ensure that the uPAs purified from the conditioned media were completely in the two-chain form, they were treated with plasmin; hexa-His (C); made in house; host or cells: HEK293 6E suspension cells
T1 sequence (P06869 180-433 Y274A): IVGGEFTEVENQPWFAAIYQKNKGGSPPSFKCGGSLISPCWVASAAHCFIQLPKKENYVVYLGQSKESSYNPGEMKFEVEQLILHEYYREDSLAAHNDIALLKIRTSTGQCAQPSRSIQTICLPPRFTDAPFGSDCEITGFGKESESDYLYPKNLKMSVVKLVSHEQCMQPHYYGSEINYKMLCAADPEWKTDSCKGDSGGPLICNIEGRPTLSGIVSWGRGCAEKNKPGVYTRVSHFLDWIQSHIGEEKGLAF
T1 sequence (P06869 21-178 partner limits assumed): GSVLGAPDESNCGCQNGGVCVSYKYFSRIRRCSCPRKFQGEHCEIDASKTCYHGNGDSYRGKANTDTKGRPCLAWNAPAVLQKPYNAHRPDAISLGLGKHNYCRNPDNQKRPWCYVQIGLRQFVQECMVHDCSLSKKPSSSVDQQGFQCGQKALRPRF
In words: Ki for inhibition of muPA-Y99A, chromogenic substrate. The experiment is classed as biochemical, murine. Conditions: means ± S.D.; read-out: K i for inhibition of muPA-Y99A. The text has this:
(§1) Determination of Ki values
(§2) The initial reaction velocities were monitored at an absorbance of 405 nm. The inhibition constants (K i) were subsequently determined from the non-linear regression analyses of plots for V i/V o versus [I]0, using Equation 2, derived under assumption of competitive inhibition:
(§3) [drawing 2] (2) where V i and V 0 are the reaction velocities in the presence and absence of inhibitor, respectively; [S]0 and [I]0 are the substrate and inhibitor concentrations, respectively; K M is K M for substrate hydrolysis by each protease. In Equation 2, it is assumed that [S]free ≈ [S]0 and [I]free ≈ [I]0.

Another experiment concerns the target T2, muPA (Mus musculus, UniProt P06869).
T2 construct: To ensure that the uPAs purified from the conditioned media were completely in the two-chain form, they were treated with plasmin; hexa-His (C); made in house; host or cells: HEK293 6E suspension cells
In words: Surface plasmon resonance analysis of peptide binding to muPA. Set-up: species or system murine. Conditions: SPR, 25°C, pH 7.4. Here is the method: (§4) Surface plasmon resonance (SPR) analysis
(§5) To determine the equilibrium binding constants (KD), the association rate constants (kon) and dissociation rate constants (koff) for peptide binding to uPA, surface plasmon resonance analysis was performed on a Biacore T200 instrument (Biacore, Uppsala, Sweden). A CM5 chip was coupled with the uPA variant (muPA or huPAH99Y) to be analysed, by injecting a concentration of 30 µg/mL uPA in immobilization buffer (10 mM sodium acetate, pH 5.0), aiming for an immobilised level of approximately 500 response units (RU). Immobilisation was followed by surface blocking with ethanolamine. A reference cell was prepared in the same way, without coupling of uPA. Mupain-1 variants in HBS with 0.1% BSA, in a dilution series, were injected at a flow rate of 30 µL per min during 60 s at 25°C. Subsequently, the dissociation was monitored during 600 s. Kinetic constants (k on and k off) were calculated with the Biacore Evaluation Software, using the 1∶1 kinetic fit. The K D values were calculated as k off /k on.
For orientation: Surface plasmon resonance follows binding to a sensor surface in real time, without labels.

In the next experiment the target is T3, muPA K41A (Mus musculus, UniProt P06869, K210A).
T3 construct: To ensure that the uPAs purified from the conditioned media were completely in the two-chain form, they were treated with plasmin; hexa-His (C); made in house; host or cells: HEK293 6E suspension cells
T3 sequence (P06869 180-433 K210A): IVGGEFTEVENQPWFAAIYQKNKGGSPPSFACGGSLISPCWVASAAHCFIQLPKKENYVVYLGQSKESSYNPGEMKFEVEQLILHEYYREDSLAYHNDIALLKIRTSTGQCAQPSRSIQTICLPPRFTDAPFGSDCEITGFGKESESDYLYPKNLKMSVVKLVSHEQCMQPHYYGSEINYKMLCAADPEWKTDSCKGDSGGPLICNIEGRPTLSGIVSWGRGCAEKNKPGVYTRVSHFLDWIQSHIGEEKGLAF
T3 sequence (P06869 21-178 partner limits assumed): as the sequence (P06869 21-178 partner limits assumed) above
In words: Ki for inhibition of muPA-K41A, chromogenic substrate. The class given is biochemical, murine. Conditions: means ± S.D.; read-out: K i for inhibition of muPA-K41A.
Text: as §1, §2, §3

For the next experiment, the target named is T4, huPA-H99Y R35A (Homo sapiens, UniProt P00749, H272Y/R198A).
T4 construct: To ensure that the uPAs purified from the conditioned media were completely in the two-chain form, they were treated with plasmin; hexa-His (C); made in house; host or cells: HEK293 6E suspension cells
In words: Ki for inhibition of huPA-H99Y-R35A, chromogenic substrate. The experiment is classed as biochemical. Conditions: 37°C; means ± S.D.; read-out: K i for inhibition of huPA-H99Y-R35A.
Text: as §1, §2, §3

Another experiment deals with T5, huPA-H99Y V41A (Homo sapiens, UniProt P00749, H272Y/V208A).
T5 construct: To ensure that the uPAs purified from the conditioned media were completely in the two-chain form, they were treated with plasmin; hexa-His (C); made in house; host or cells: HEK293 6E suspension cells
In words: Ki for inhibition of huPA-H99Y-V41A, chromogenic substrate. The class given is biochemical. Conditions: 37°C; means ± S.D.; read-out: K i for inhibition of huPA-H99Y-V41A.
Text: as §1, §2, §3

In a further experiment the target is huPA-H99Y Q192A (Homo sapiens, UniProt P00749, H272Y/Q373A). In words: Ki for inhibition of huPA-H99Y-Q192A, chromogenic substrate. The class given is biochemical. Particulars: 37°C; means ± S.D.; read-out: K i for inhibition of huPA-H99Y-Q192A. Set-up: To ensure that the uPAs purified from the conditioned media were completely in the two-chain form, they were treated with plasmin; hexa-His (C); made in house; host or cells: HEK293 6E suspension cells.
Text: as §1, §2, §3

The next experiment addresses T6, muPA V213T (Mus musculus, UniProt P06869, V396T).
T6 construct: To ensure that the uPAs purified from the conditioned media were completely in the two-chain form, they were treated with plasmin; hexa-His (C); made in house; host or cells: HEK293 6E suspension cells
In words: Ki for inhibition of muPA-V213T, chromogenic substrate. The experiment is classed as biochemical, murine. Conditions: means ± S.D.; read-out: K i for inhibition of muPA-V213T.
Text: as §1, §2, §3

In experiment [1] the target is T7, huPA-H99Y (Homo sapiens, UniProt P00749, H272Y).
T7 construct: To ensure that the uPAs purified from the conditioned media were completely in the two-chain form, they were treated with plasmin; hexa-His (C); made in house; host or cells: HEK293 6E suspension cells
In words: Ki for inhibition of huPA-H99Y, chromogenic substrate S-2444. The class given is biochemical. Particulars: 37°C; means ± S.D.; read-out: K i for inhibition of huPA-H99Y.
Text: as §1, §2, §3

The target in a further experiment is T8, muPA wt (Mus musculus, UniProt P06869).
T8 construct: To ensure that the uPAs purified from the conditioned media were completely in the two-chain form, they were treated with plasmin; hexa-His (C); made in house; host or cells: HEK293 6E suspension cells
T8 sequence (P06869 180-433 limits assumed): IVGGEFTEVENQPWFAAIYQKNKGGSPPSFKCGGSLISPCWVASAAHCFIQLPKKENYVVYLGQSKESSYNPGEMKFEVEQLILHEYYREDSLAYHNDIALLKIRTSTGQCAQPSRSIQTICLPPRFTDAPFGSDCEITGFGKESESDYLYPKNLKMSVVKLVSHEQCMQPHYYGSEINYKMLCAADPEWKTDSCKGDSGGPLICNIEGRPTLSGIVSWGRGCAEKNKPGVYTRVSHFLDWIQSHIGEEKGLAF
T8 sequence (P06869 21-178 partner limits assumed): as the sequence (P06869 21-178 partner limits assumed) above
In words: Ki for inhibition of muPA wt, chromogenic substrate. The experiment is classed as biochemical, murine. Particulars: means ± S.D.; read-out: K i for inhibition of muPA wt.
Text: as §1, §2, §3

The next experiment addresses T9, muPA S190A (Mus musculus, UniProt P06869, S373A).
T9 construct: To ensure that the uPAs purified from the conditioned media were completely in the two-chain form, they were treated with plasmin; hexa-His (C); made in house; host or cells: HEK293 6E suspension cells
In words: Ki for inhibition of muPA-S190A, chromogenic substrate. The experiment is classed as biochemical, murine. Conditions: means ± S.D.; read-out: K i for inhibition of muPA-S190A.
Text: as §1, §2, §3

Experiment [2] deals with T7, huPA-H99Y. In words: Surface plasmon resonance analysis of peptide binding to huPA-H99Y. Particulars: SPR, 25°C, pH 7.4. The method, then: as §4, §5
In experiment [3] the target is T10, huPA-H99Y (Homo sapiens, UniProt P00749, C299A/H272Y/N322Q).
T10 construct: recombinant uPA catalytic domain (residues 159–411), harbouring a H99Y mutation; made in house; host or cells: Pichia pastoris X-33 (secreted)
In words: Isothermal titration calorimetry for binding to huPA-H99Y catalytic domain. Conditions: ITC, 25°C, pH 7.4. Here is the method:
For these experiments, we used the catalytic domain of huPA-H99Y expressed in and purified from Pichia pastoris strain X-33 (see above). The protein was dissolved in and dialysed against a buffer of 20 mM sodium phosphate, pH 7.4, 140 mM NaCl. The protein concentration was determined by absorbance at 280 nm, using an extinction coefficient of 43810 M^−1cm^−1. The peptides were dissolved in the above-mentioned buffer. All isothermal titration calorimetry experiments were performed with a MicroCal^TM ITC200 instrument equilibrated to a temperature of 25°C (298oK). The concentration of uPA-H99Y catalytic domain used in the 200 µl sample cell was 5–50 µM, depending on the affinity of the ligand. Titrations were performed by injecting 2 µl of the ligand until the total syringe volume of 40 µl was spent. Titration of ligand into buffer was performed to obtain buffer correction. The equilibrium association constant KA and the reaction enthalpy ΔH were calculated by fitting the integrated titration peaks using a one-binding-site model in the ITC ORIGIN7 programme package. The following formulas for Gibbs free energy ΔG were used to analyse the measured energies
[drawing 4] (4) where R is the gas constant and T the absolute temperature. ΔS, the entropic change during the reaction, was calculated using equations 3 and 4 and the measured K A and ΔH values.

The target in another experiment is T11, muPA K143A (Mus musculus, UniProt P06869, K322A).
T11 construct: To ensure that the uPAs purified from the conditioned media were completely in the two-chain form, they were treated with plasmin; hexa-His (C); made in house; host or cells: HEK293 6E suspension cells
T11 sequence (P06869 180-433 K322A): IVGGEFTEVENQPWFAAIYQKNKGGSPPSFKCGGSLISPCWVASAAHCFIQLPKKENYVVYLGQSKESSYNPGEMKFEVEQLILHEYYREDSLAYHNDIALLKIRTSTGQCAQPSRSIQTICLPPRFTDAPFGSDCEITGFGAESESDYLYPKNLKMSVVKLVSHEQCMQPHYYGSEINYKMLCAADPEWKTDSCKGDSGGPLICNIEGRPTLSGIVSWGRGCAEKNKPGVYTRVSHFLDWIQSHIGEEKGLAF
T11 sequence (P06869 21-178 partner limits assumed): as the sequence (P06869 21-178 partner limits assumed) above
In words: Ki for inhibition of muPA-K143A, chromogenic substrate. The experiment is classed as biochemical, murine. Particulars: means ± S.D.; read-out: K i for inhibition of muPA-K143A.
Text: as §1, §2, §3

T2 sequence (P06869 180-433 limits assumed): as the sequence (P06869 180-433 limits assumed) above
T2 sequence (P06869 21-178 partner limits assumed): as the sequence (P06869 21-178 partner limits assumed) above
T6 sequence (P06869 180-433 V396T): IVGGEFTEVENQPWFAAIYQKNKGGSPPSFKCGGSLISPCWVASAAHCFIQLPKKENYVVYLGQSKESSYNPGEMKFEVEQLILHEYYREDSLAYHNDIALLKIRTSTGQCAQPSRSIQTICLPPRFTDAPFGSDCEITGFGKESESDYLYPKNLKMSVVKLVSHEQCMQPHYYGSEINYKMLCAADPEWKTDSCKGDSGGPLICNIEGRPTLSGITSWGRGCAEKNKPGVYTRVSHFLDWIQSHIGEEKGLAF
T6 sequence (P06869 21-178 partner limits assumed): as the sequence (P06869 21-178 partner limits assumed) above
T9 sequence (P06869 180-433 S373A): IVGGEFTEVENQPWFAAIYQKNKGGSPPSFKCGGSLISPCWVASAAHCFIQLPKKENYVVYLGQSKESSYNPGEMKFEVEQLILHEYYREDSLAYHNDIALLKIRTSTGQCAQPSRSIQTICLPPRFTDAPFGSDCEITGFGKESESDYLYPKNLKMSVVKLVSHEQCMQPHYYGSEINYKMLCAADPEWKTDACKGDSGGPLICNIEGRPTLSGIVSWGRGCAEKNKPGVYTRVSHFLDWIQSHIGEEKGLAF
T9 sequence (P06869 21-178 partner limits assumed): as the sequence (P06869 21-178 partner limits assumed) above

As to `CC(=O)N[C@H]1CSSC[C@@H](C(N)=O)NC(=O)[C@H](C)NC(=O)[C@H](CC(C)C)NC(=O)[C@H](Cc2ccc(O)cc2)NC(=O)[C@H](Cc2ccc(NC(=N)N)cc2)NC(=O)[C@H](CO)NC(=O)[C@H](Cc2ccc(O)cc2)NC(=O)[C@H](C)NC(=O)[C@@H]2CCCN2C1=O` [Mupain-1-12 D9A, CPAYS[4-guanidino-phenyl-alanine]YLAC] (Ac-CPAYS[Phe(4-guanidino)]YLAC-NH2; disulfide 1-10; N-terminus assumed), the Ki at muPA Y99A came to 5890 ± 1310 nM; at muPA K41A, 91 ± 7 nM; at huPA-H99Y R35A, 231 ± 78 nM; on huPA-H99Y V41A, 478 ± 137 nM; at huPA-H99Y Q192A it was 438 ± 79 nM; on muPA V213T, 166 ± 75 nM. Besides, the Ki turned out to be 186 ± 36 nM at huPA-H99Y [1], 190 ± 10 nM at muPA wt, 3520 ± 500 nM on muPA S190A and 1000 ± 30 nM at muPA K143A. The “k off, muPA” value on muPA is 3.94±0.30 (3) s^−1, ×10^2. Besides, the “k on, muPA” value on muPA is recorded as 2.42±1.01 (3) M^−1s^−1, ×10^−5. The Kd is 177 ± 51 nM at muPA (calculated as k off/k on, read-out: K D, muPA); 134 ± 2 nM on huPA-H99Y [2] (calculated as k off/k on, read-out: K D, huPA-H99Y); 138 ± 47 nM on huPA-H99Y [3]. Moreover, the “k off, huPA-H99Y” value at huPA-H99Y [2] was 7.94±0.39 (3) s^-1, ×10^2. Further, on huPA-H99Y [2], the “k on, huPA-H99Y” value is listed as 5.93±0.33 (3) M^-1s^-1, ×10^-5. In addition, on huPA-H99Y [3], the N was 0.88±0.01 (3). Also, the TΔS at huPA-H99Y [3] is recorded as −18.9±5.1 (3) ^1 kJ/mole. Further, the ΔG on huPA-H99Y [3] was −39.2±0.8 (3) ^1 kJ/mole. Besides, the ΔH on huPA-H99Y [3] is −60.1±5.4 (3) ^1 kJ/mole.
